Here are results for 28 compounds from patent US9815796B2 (Merck Sharp & Dohme Corp., priority 2013, dated 2017).

The Ki is a dissociation constant, usually derived from enzyme kinetics or from competition with a known ligand.

For one assay, the target named is Rhesus PDE2A3 (Macaca mulatta, UniProt B3VTJ2). The experiment in a line: PDE2 fluorescence polarization (IMAP FP) inhibition assay, rhesus enzyme. The format is biochemical, rhesus macaque. Put shortly:
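Rhesus PDE2A3 came from lysate of transiently transfected AD293 cells, diluted to give 20% substrate conversion. Substrate was 50 nM FAM-cAMP with 1 uM cGMP activator in Tris pH 7.2/MgCl2 buffer, run 60 min at room temperature over 10-point 3-fold dilutions in 1% DMSO. Read-out was IMAP fluorescence polarization (mP) after ≥1 h binding.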
(Fluorescence polarisation rises when a labelled molecule tumbles more slowly, as on binding a larger partner.)

The next assay deals with human PDE2A1 (Homo sapiens (Human), UniProt O00408). Kind of assay: IMAP FP PDE selectivity panel, human PDE2A1. The class given is biochemical. The method in brief:
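GST-tagged human PDE2A1 expressed in insect cells, run at room temperature for 60 min with 50 nM FAM-cAMP containing 1000 nM cGMP, pH 7.2 Tris/MgCl2 buffer. IMAP fluorescence polarization read after binding step.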

Where [1] appears, read: Rhesus PDE2, Lab B, read-out: Rhesus PDE2 Ki (nM) - Lab B.
Where [2] appears, read: Human PDE2, Lab B, read-out: Human PDE2 Ki (nM) - Lab B.
Where [3] appears, read: Rhesus PDE2, Lab A, read-out: Rhesus PDE2 Ki (nM) - Lab A.
[4] abbreviates: Human PDE2, Lab A, read-out: Human PDE2 Ki (nM) - Lab A.

Molecules are shown by their SMILES. Read-outs that look alike come from different tables or passages of the source.

Chain of human PDE2A1 (O00408 other isoform, or with tags, fused parts or gaps): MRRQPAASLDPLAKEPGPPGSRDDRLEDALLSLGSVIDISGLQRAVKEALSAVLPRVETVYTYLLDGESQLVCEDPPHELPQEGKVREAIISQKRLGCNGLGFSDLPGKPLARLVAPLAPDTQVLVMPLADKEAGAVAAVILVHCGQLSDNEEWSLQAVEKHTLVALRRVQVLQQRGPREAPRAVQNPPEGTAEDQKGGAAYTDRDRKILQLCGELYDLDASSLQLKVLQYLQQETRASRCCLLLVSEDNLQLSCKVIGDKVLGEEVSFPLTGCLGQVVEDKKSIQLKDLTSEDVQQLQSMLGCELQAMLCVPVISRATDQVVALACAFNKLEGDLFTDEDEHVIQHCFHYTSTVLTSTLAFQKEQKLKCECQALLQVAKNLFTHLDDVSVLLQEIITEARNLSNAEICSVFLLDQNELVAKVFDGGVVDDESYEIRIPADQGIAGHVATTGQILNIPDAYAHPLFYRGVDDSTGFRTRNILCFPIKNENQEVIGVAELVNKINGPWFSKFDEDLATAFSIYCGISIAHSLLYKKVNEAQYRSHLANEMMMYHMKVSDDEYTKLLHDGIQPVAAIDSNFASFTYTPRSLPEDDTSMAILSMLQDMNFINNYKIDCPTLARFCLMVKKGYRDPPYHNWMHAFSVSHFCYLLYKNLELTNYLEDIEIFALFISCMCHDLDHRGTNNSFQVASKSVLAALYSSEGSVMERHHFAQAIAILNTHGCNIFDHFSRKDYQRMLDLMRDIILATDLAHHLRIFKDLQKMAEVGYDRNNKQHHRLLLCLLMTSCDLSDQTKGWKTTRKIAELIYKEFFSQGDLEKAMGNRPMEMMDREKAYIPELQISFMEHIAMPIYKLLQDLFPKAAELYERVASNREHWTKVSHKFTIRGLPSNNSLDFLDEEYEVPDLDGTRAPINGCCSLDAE
Chain of Rhesus PDE2A3 (B3VTJ2 1-941): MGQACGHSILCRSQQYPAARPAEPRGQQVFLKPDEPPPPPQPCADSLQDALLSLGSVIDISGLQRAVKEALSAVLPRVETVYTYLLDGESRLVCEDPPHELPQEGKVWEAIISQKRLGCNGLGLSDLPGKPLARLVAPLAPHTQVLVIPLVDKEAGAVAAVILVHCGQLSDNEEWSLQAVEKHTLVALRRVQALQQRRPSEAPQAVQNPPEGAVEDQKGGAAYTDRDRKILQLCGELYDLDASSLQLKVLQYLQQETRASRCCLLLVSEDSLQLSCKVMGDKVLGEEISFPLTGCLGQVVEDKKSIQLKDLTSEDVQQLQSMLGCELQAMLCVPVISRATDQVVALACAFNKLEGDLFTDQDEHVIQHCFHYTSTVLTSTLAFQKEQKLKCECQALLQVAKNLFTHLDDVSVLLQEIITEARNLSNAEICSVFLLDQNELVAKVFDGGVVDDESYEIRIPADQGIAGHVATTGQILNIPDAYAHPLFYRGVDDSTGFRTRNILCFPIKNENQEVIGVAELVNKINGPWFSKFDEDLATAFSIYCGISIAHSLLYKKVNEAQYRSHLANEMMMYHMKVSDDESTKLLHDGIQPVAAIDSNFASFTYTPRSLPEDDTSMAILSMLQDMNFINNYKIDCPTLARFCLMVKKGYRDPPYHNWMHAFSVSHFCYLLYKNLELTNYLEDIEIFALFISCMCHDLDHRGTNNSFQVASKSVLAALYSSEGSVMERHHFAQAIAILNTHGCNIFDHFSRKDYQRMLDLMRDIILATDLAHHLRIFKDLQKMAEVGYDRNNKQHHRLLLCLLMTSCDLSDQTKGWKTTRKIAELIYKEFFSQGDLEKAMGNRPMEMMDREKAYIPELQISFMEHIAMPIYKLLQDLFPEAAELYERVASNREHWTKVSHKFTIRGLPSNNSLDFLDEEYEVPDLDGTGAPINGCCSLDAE

`O=C(N[C@@H](c1ccc(S(F)(F)(F)(F)F)cc1)C1CC1)c1cc(=O)[nH]c(-c2ncccn2)n1` [Example 412, N-{(R)-cyclopropyl[4-(pentafluoro-λ^6-sulfanyl)phenyl]methyl}-6-oxo-1,6-dihydro-2,2′-bipyrimidine-4-carboxamide]: the inhibition constant Ki is 9.9 nM on Rhesus PDE2A3 (setting [1]) and 10 nM on human PDE2A1 (setting [2]).

Take `C[C@@H](NC(=O)c1cc(=O)[nH]c(-c2ncccn2)n1)c1ccc(OC(F)(F)F)cc1F` [Example 101, N-{(1R)-1-[2-fluoro-4-(trifluoromethoxy)phenyl]ethyl}-6-oxo-1,6-dihydro-2,2′-bipyrimidine-4-carboxamide]: the Ki at Rhesus PDE2A3 (setting [3]) was 28 nM; at Rhesus PDE2A3 (setting [1]), 28 nM; at human PDE2A1 (setting [4]) it was about 8.9 nM; at human PDE2A1 (setting [2]), 33 nM.

Consider `C[C@@H](NC(=O)c1cc(=O)[nH]c(-c2ccccc2)n1)c1ccc(-c2ccccc2)cc1` [Example 279, N-[(1R)-1-biphenyl-4-ylethyl]-6-oxo-2-phenyl-1,6-dihydropyrimidine-4-carboxamide], for which the figures for the inhibition constant Ki at Rhesus PDE2A3 (setting [3]) and on human PDE2A1 (setting [4]) were 24 nM and 16 nM, respectively.

In the case of `Cc1nc(C(=O)N[C@H](C)c2ccc(OC(F)F)cc2)cc(=O)[nH]1` [Example 304, (R)-N-(1-(4-(difluoromethoxy)phenyl)ethyl)-2-methyl-6-oxo-1,6-dihydropyrimidine-4-carboxamide], the Ki was 91 nM at Rhesus PDE2A3 (setting [3]) and 76 nM at human PDE2A1 (setting [4]).

For the compound `COc1ccc(Cc2nc(C(=O)N[C@@H](c3ccc(OC(F)(F)F)cc3)C3CC3)cc(=O)[nH]2)cc1` [Example 480, N-{(R)-cyclopropyl[4-(trifluoromethoxy)phenyl]methyl}-2-(4-methoxybenzyl)-6-oxo-1,6-dihydropyrimidine-4-carboxamide], the inhibition constant (Ki) at Rhesus PDE2A3 (setting [1]) and at human PDE2A1 (setting [2]) was 1.9 nM in each case.

Take `C[C@@H](NC(=O)c1cc(=O)[nH]c(C2CC2)n1)c1ccc(OC(F)(F)F)cc1` [Example 10, 2-cyclopropyl-6-oxo-N-{(1R)-1-[4-(trifluoromethoxy)phenyl]ethyl}-1,6-dihydropyrimidine-4-carboxamide]: the inhibition constant (Ki) at Rhesus PDE2A3 (setting [3]) is 9.9 nM; at human PDE2A1 (setting [4]) it was 6 nM.

Consider `CCc1nc(C(=O)NC2(c3ccc(C(F)(F)F)c(F)c3)CC2)cc(=O)[nH]1` [Example 601, 2-ethyl-N-{1-[3-fluoro-4-(trifluoromethyl)phenyl]cyclopropyl}-6-oxo-1,6-dihydropyrimidine-4-carboxamide], for which the Ki on Rhesus PDE2A3 (setting [1]) was determined as 8 nM; at human PDE2A1 (setting [2]) it was 8.2 nM.

Consider `COC(=O)C(NC(=O)c1cc(=O)[nH]c(C)n1)c1ccc(C(F)(F)F)cc1` (racemic) [Example 325, Methyl 2-(2-methyl-6-oxo-1,6-dihydropyrimidine-4-carboxamido)-2-(4-(trifluoromethyl)phenyl)-acetate], for which the Ki on Rhesus PDE2A3 (setting [3]) turned out to be 1100 nM; on human PDE2A1 (setting [4]) it was 687 nM.

In the case of `C[C@@H](NC(=O)c1cc(=O)[nH]c(-c2ccccc2)n1)c1ccc(SC(F)(F)F)cc1` [Example 142, 6-Oxo-2-phenyl-N-[(1R)-1-{4-[(trifluoromethyl)sulfanyl]phenyl}ethyl]-1,6-dihydropyrimidine-4-carboxamide], the inhibition constant Ki on Rhesus PDE2A3 (setting [3]) is 1.4 nM; on human PDE2A1 (setting [4]) it was 1.5 nM.

Turning to `CC(NC(=O)c1cc(=O)[nH]c(-c2ccccc2)n1)c1ccc(-n2cccn2)cc1` (centres unmarked) [Example 350, 6-oxo-2-phenyl-N-{1-[4-(1H-pyrazol-1-yl)phenyl]ethyl}-1,6-dihydropyrimidine-4-carboxamide], the Ki at Rhesus PDE2A3 (setting [3]) stood at 21 nM; at human PDE2A1 (setting [2]), 39 nM.

With `COc1ccc(Cc2nc(C(=O)N[C@@H](c3ccc(SC(F)(F)F)cc3)C3CC3)cc(=O)[nH]2)cc1` [Example 479, N-[(R)-cyclopropyl{4-[(trifluoromethyl)sulfanyl]phenyl}methyl]-2-(4-methoxybenzyl)-6-oxo-1,6-dihydropyrimidine-4-carboxamide], the Ki on Rhesus PDE2A3 (setting [1]) worked out at 1.9 nM; on human PDE2A1 (setting [2]), 2 nM.

Turning to `Cc1nc(C(=O)NC(C(=O)O)c2ccc(C(F)(F)F)cc2)cc(=O)[nH]1` (racemic) [Example 326, 2-(2-Methyl-6-oxo-1,6-dihydropyrimidine-4-carboxamido)-2-(4-(trifluoromethyl)phenyl)acetic acid], the results for the inhibition constant (Ki) on Rhesus PDE2A3 (setting [3]) and at human PDE2A1 (setting [4]) were 70 nM and 67 nM, respectively.

Regarding `Cc1nc(C(=O)N[C@@H](c2ccc(C(F)(F)F)cc2F)C(C)(C)C)cc(=O)[nH]1` [Example 617], the Ki worked out at 4.2 nM at Rhesus PDE2A3 (setting [1]) and 4 nM at human PDE2A1 (setting [2]).

As for `CC[C@@H](NC(=O)c1cc(=O)[nH]c(C)n1)c1ccc(SC(F)(F)F)c(F)c1` [Example 54, N-[(1R)-1-{3-fluoro-4-[(trifluoromethyl)sulfanyl]phenyl}propyl]-2-methyl-6-oxo-1,6-dihydropyrimidine-4-carboxamide], the Ki on Rhesus PDE2A3 (setting [3]) was found to be 9.7 nM; on human PDE2A1 (setting [4]) it was 5.5 nM.

Consider `CCc1ccc(C(C)NC(=O)c2cc(=O)[nH]c(-c3ncccn3)n2)cc1` (centres unmarked) [Example 79, N-[1-(4-ethylphenyl)ethyl]-6-oxo-1,6-dihydro-2,2′-bipyrimidine-4-carboxamide], for which the Ki is 22 nM on Rhesus PDE2A3 (setting [3]), 25 nM at Rhesus PDE2A3 (setting [1]) and 35 nM on human PDE2A1 (setting [2]).

Take `Cc1nc(C(=O)NC2(c3ccc(SC(F)(F)F)cc3)CC2)cc(=O)[nH]1` [Example 35, 2-Methyl-6-oxo-N-(1-(4-((trifluoromethyl)thio)phenyl)cyclopropyl)-1,6-dihydroy primidine-4-carboxamide]: the Ki on Rhesus PDE2A3 (setting [3]) turned out to be 19 nM; on human PDE2A1 (setting [4]), 15 nM.

For `C[C@@H](NC(=O)c1cc(=O)[nH]c(C2CC2)n1)c1ccc(-c2ccccc2)cc1` [Example 144, N-[(1R)-1-biphenyl-4-ylethyl]-2-cyclopropyl-6-oxo-1,6-dihydropyrimidine-4-carboxamide], the inhibition constant (Ki) is 16 nM on Rhesus PDE2A3 (setting [3]) and 6 nM on human PDE2A1 (setting [4]).

On to `Cc1ccccc1-c1nc(C(=O)N[C@H](C)c2ccc(C(F)(F)F)cc2)cc(=O)[nH]1` [Example 141, 2-(2-methylphenyl)-6-oxo-N-{(1R)-1-[4-(trifluoromethyl)phenyl]ethyl}-1,6-dihydropyrimidine-4-carboxamide], for which the results for the Ki at Rhesus PDE2A3 (setting [3]) and on human PDE2A1 (setting [4]) were 136 nM and 110 nM, respectively.

On to `Cc1nc(C(=O)N[C@@H](c2ccc(C(F)(F)F)cc2)C(C)C)cc(=O)[nH]1` [Example 316, 2-methyl-N-{(1R)-2-methyl-1-[4-(trifluoromethyl)phenyl]propyl}-6-oxo-1,6-dihydropyrimidine-4-carboxamide], for which the Ki on Rhesus PDE2A3 (setting [3]) is 13 nM; at human PDE2A1 (setting [4]) it was 7.1 nM.

For the compound `Cc1nc(C(=O)NC(C(=O)O)c2ccc(C(F)(F)F)cc2)cc(=O)[nH]1` (single isomer, unassigned) [Example 328], the Ki at Rhesus PDE2A3 (setting [3]) was found to be 33 nM; on human PDE2A1 (setting [4]), 38 nM.

For `COCc1nc(C(=O)N[C@@H](c2ccc(SC(F)(F)F)cc2)C(C)C)cc(=O)[nH]1` [Example 120, 2-(methoxymethyl)-N-[(1R)-2-methyl-1-{4-[(trifluoromethyl)sulfanyl]phenyl}propyl]-6-oxo-1,6-dihydropyrimidine-4-carboxamide], the results for the Ki on Rhesus PDE2A3 (setting [3]) and on human PDE2A1 (setting [4]) were 8.7 nM and 4.2 nM, respectively.

On to `COc1cc(OC(F)(F)F)ccc1C(C)NC(=O)c1cc(=O)[nH]c(-c2ccccc2)n1` (centres unmarked) [Example 187, N-{1-[2-methoxy-4-(trifluoromethoxy)phenyl]ethyl}-6-oxo-2-phenyl-1,6-dihydropyrimidine-4-carboxamide], for which the inhibition constant (Ki) at Rhesus PDE2A3 (setting [3]) was 4.5 nM; at human PDE2A1 (setting [4]), 3.1 nM.

On to `C[C@@H](NC(=O)c1nc(C2CCC2)[nH]c(=O)c1C1CCC1)c1ccc(C(F)(F)F)cc1` [Example 335, (R)-2,5-dicyclobutyl-6-oxo-N-(1-(4-(trifluoromethyl)phenyl)ethyl)-1,6-dihydropyrimidine-4-carboxamide], for which the Ki at Rhesus PDE2A3 (setting [3]) is 1320 nM; at human PDE2A1 (setting [4]), 1220 nM.

For the compound `Cc1nc(C(=O)N[C@@H](c2ccc(C(C)(C)C)cc2)C2(C)CC2)cc(=O)[nH]1` [Example 614, N-[(R)-(4-tert-butylphenyl)(1-methylcyclopropyl)methyl]-2-methyl-6-oxo-1,6-dihydropyrimidine-4-carboxamide], the figures for the Ki at Rhesus PDE2A3 (setting [1]) and on human PDE2A1 (setting [2]) were 20 nM and 17 nM, respectively.

On to `O=C(N[C@@H](c1ccc(SC(F)(F)F)cc1)C1CC1)c1cc(=O)[nH]c(-c2ncccn2)n1` [Example 95, N-[(R)-cyclopropyl{4-[(trifluoromethyl)sulfanyl]phenyl}methyl]-6-oxo-1,6-dihydro-2,2′-bipyrimidine-4-carboxamide], for which the Ki at Rhesus PDE2A3 (setting [3]) is 7.4 nM; on human PDE2A1 (setting [4]) it was 3.1 nM.

In the case of `Cc1nc(C(=O)NC2(c3ccc(C(F)(F)F)cc3)CCC2)cc(=O)[nH]1` [Example 2, 2-methyl-6-oxo-N-{1-[4-(trifluoromethyl)phenyl]cyclobutyl}-1,6-dihydropyrimidine-4-carboxamide], the values for the Ki at Rhesus PDE2A3 (setting [3]) and at human PDE2A1 (setting [4]) were 38 nM and 24 nM, respectively.

Consider `Cc1nc(C(=O)N[C@@H](c2ccc(CC(F)(F)F)cc2)C(C)(C)C)cc(=O)[nH]1` [Example 61, (R)-N-(2,2-dimethyl-1-(4-(2,2,2-trifluoroethyl)phenyl)propyl)-2-methyl-6-oxo-1,6-dihydropyrimidine-4-carboxamide], for which the values for the Ki on Rhesus PDE2A3 (setting [1]) and at human PDE2A1 (setting [2]) were 10 nM and 8.2 nM, respectively.

In the case of `COc1ccc(Cc2nc(C(=O)N[C@@H](c3ccc(OC(F)(F)F)c(F)c3)C(C)C)cc(=O)[nH]2)cc1` [Example 473, N-{(1R)-1-[3-fluoro-4-(trifluoromethoxy)phenyl]-2-methylpropyl}-2-(4-methoxybenzyl)-6-oxo-1,6-dihydropyrimidine-4-carboxamide], the figures for the inhibition constant (Ki) on Rhesus PDE2A3 (setting [1]) and at human PDE2A1 (setting [2]) were 1.1 nM and 0.86 nM, respectively.
